Data published in publication PMC5723147, “Effective Antimicrobial Activity of Plectasin-Derived Antimicrobial Peptides against Staphylococcus aureus Infection in Mammary Glands” (Frontiers in Microbiology, 2017).
Converted amounts (≈) assume the structure as drawn.

Experiments:
[1] = test system: Staphylococcus aureus E48; assay: Minimum inhibitory concentration (broth microdilution, Mueller-Hinton broth); type: cell-based; conditions: 5 × 10^5 CFU/mL, 37°C, 16-20 h, three replicates, read-out: MIC against S. aureus E48
Procedure: Staphylococcus aureus E48, a clinical mastitis isolate, had been used to induce mouse mastitis model ([Wang et al., 2017]). […] It was used as a positive control in this study and was purchased from Sigma–Aldrich. The AMPs were prepared according to a previously described protocol ([Zhang et al., 2015]). The minimum inhibitory concentrations (MICs) were used to evaluate the antibacterial activities of antimicrobial agents ([Wiegand et al., 2008]). Briefly, S. aureus were grown to the log-phase at 37°C in the Mueller–Hinton broth, and diluted to 5 × 10^5 CFU/mL with the fresh medium. A total of 180 μL of cell suspension and 20 μL of serially twofold diluted peptide were added to each well, and the plates were incubated at 37°C for 16–20 h. The final concentration of antimicrobial agents was prepared with gradients of 64, 32, 16, 8, 4, 2, 1, 0.5, 0.25, 0.125, and 0.0625 μg/mL. Three replicates were examined for each concentration. The MICs refer to the lowest concentration where no growth was visible after 16–20 h of incubation.

[2] = test system: S. aureus E48 in mammary glands; assay: Mouse model of S. aureus-induced mastitis; type: in vivo, BALB/c mice
Procedure: The animal protocols used in this work were approved by Institutional Animal Care and Use Committee of Northwest A&F University. The 6- to 8-week-old specific-pathogen-free BALB/c mice were purchased from the Experimental Animal Center of the Medical College of Xi’an Jiao Tong University. […] The lactating mice were challenged with S. aureus E48 as described earlier ([Schmelcher et al., 2015]). The pentobarbital sodium (1.4 mg/20 g bodyweight) was used for anesthesia of the lactating mice by intraperitoneal injection. The distal end of the teat L4 (on the left) and R4 (on the right) was removed (snipped) by a small cut. These L4 and R4 glands constitute the fourth pair found from head to tail. For all groups except for the snipped only group, glands were injected with approximately 10^4 CFU S. aureus in 50 μL PBS. At 45 min after S. aureus inoculation, the challenged glands were injected with 100 μg AMPs in 20 μL or 20 μL of PBS, depending on the treatment. The mice were euthanized 24 h after the S. aureus inoculation, and mammary glands were aseptically collected and weighed. Five mice (10 mammary glands) were used for each group. Seven mammary glands from each treatment were sampled and homogenized in PBS (100 mg/200 μL). Serial dilution plating on Baird-Parker agar plates was done to determine intramammary S. aureus. A part of the homogenate was centrifuged, and the supernatant was used for tumor necrosis factor alpha (TNF-α) and interleukin 6 (IL-6) assays, using the mouse TNF-α and IL-6 ELISA kits (Shanghai Bangyi Biotechnology). The tissue from three mammary glands from each treatment was fixed with 10% buffered formalin for histopathological analyses (HE staining).

[3] = 100 μg intramammary, 24 h post-infection, ELISA, P < 0.05

## CN(C)[C@@H]1C(O)=C(C(N)=O)C(=O)[C@@]2(O)C(O)=C3C(=O)c4c(O)cccc4[C@@](C)(O)[C@H]3C[C@@H]12 [tetracycline, Tetracycline]
[1]
  MIC: 1 µg/mL (≈ 2.25 µM)
[2]; 100 μg intramammary 45 min after ~10^4 CFU inoculation, 24 h after inoculation
  Reduction of S. aureus numbers in mammary glands compared to PBS control: 1.48 log10 units
[2]; 100 μg intramammary, 24 h
  S. aureus-induced inflammatory cell infiltration in mammary tissue (HE staining): significantly reduced
[2]; [3]
  Intramammary IL-6 concentration in comparison with buffer control: significantly reduced
  Intramammary TNF-α concentration in comparison with buffer control: significantly reduced
